The source made the active and inactive calls. The calls are words filed in the database; no cut-off is given here.

This assay deals with Acetylcholinesterase (Homo sapiens) (UniProt P22303). Put plainly: Inhibition of AchE at 100 uM after 30 mins by Ellman's method. (In Ellman's method for cholinesterases, released thiocholine reacts with DTNB.)
Chain of Acetylcholinesterase (Homo sapiens) (P22303 whole entry): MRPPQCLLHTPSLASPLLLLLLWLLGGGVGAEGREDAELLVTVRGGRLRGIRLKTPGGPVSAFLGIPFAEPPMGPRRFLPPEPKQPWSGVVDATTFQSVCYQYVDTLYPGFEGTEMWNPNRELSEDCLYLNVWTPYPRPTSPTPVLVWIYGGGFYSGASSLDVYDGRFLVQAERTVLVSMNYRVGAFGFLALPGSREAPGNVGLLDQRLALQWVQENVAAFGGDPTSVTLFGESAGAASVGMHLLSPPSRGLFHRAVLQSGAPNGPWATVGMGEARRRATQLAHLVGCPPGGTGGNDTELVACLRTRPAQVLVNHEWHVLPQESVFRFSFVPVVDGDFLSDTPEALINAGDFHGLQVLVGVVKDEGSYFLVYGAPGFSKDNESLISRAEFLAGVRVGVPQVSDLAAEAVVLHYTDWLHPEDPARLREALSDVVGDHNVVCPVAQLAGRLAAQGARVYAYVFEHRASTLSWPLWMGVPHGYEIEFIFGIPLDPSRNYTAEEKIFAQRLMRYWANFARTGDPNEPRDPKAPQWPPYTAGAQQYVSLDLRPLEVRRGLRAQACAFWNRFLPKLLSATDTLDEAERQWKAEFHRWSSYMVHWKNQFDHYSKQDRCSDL
Take `CC(=O)OC[C@@]12CC[C@@H]3[C@H](/C=C(/C=O)CC[C@H]1O2)C3(C)C`: the inhibition entry is “inactive”.

Molecule `CC1(C)[C@@H]2CC[C@@]3(C)O[C@@H]3CC/C(C=O)=C\[C@@H]21` had an inhibition of 25.9%.

In the case of `CC(=O)O[C@H]1C/C(C)=C/CC/C(C(=O)O)=C/[C@@H]2[C@H]1C2(C)C`, the inhibition entry is “inactive”.

With `C=C1CC[C@H]2[C@@H](/C=C(\C(=O)O)CC[C@@H]1O)C2(C)C`, the inhibition result was “inactive”.

On to `CC(=O)O[C@H]1C[C@@]2(C)O[C@@H]2CC/C(C=O)=C\[C@H]2[C@@H]1C2(C)C`, for which the inhibition entry is “inactive”.

For the molecule `C/C1=C\CC/C(C(=O)O)=C/[C@@H]2[C@H](CC1)C2(C)C`, the inhibition result was “inactive”.

Take `CC1(C)[C@@H]2CC[C@@]3(C=O)O[C@@H]3CC/C(C=O)=C\[C@@H]21`: the inhibition result is “inactive”.

For the molecule `CC(=O)OC/C1=C\CC/C(C=O)=C\[C@@H]2[C@@H](CC1)C2(C)C`, the inhibition entry is “inactive”.

In the case of `C/C1=C\CC/C(C=O)=C\[C@H]2[C@@H](C[C@H]1O)C2(C)C`, the inhibition result is “inactive”.

As usually defined, the inhibition is how much of the control response was suppressed.

These data come from ChEMBL document CHEMBL1221406, “Germacrane-type sesquiterpenoids from the roots of Valeriana officinalis var. latifolia” (J Nat Prod, 2010).
